This is an account of results in patent US7671061B2, “Methods and compositions for treating pain” (Hydra Biosciences, Inc., priority 2005, dated 2010).

What is called IC50 is the concentration that inhibits the measured activity by half.

Molecules are shown by their SMILES. Like-named read-outs stand apart in the source and are kept apart here. Bounds are passed on as bounds.

The target in one data set is hNaV1.2 (Homo sapiens, UniProt Q99250). Briefly: hNaV1.2 patch clamp (Qpatch) selectivity. Type of data set: cell-based. Background: Patch clamp records ionic current or voltage across a cell membrane.
Data set [1] addresses T1, hTRPA1 (Homo sapiens, UniProt O75762, K186N).
T1 construct: expressed in transfected cells; host or cells: HEK293/TREx (Invitrogen), induced with tetracycline
Briefly: High throughput Ca2+ fluorescence (Fluo4) assay, AITC stimulation. Type of data set: cell-based. The gist of the method: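 Read-out is Fluo4 fluorescence, proportional to [Ca2+]i, over ~3 min after AITC challenge, following 2 min compound pre-exposure in HEK293/TREx cells induced with 1 μg/ml tetracycline. Dye: 1 μM, 60 min, room temperature.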

For the next data set, the target named is hERG (Homo sapiens, UniProt Q12809). Briefly: hERG patch clamp (Qpatch) selectivity. The settings on record: for selectivity ratio: human, selective for TRPA1 over hERG. (The hERG channel carries a current that helps repolarise heart muscle cells.)
In data set [2] the target is T1, hTRPA1. Briefly: TRPA1 patch clamp (perforated patch, AITC-activated current). Format: cell-based. The gist of the method:
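HEK293 TREx cells expressing the channel were recorded by amphotericin perforated patch at −40 mV holding, with 400 ms ramps from −120 to +100 mV every 5 s. Current was activated with 5 μM AITC in pH 7.4 external solution, and block of inward and outward current was measured at −80 and +80 mV with AITC still present.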

Another data set has as its target T2, hTRPV3 (Homo sapiens, UniProt Q8NET8).
T2 sequence (Q8NET8 1-790): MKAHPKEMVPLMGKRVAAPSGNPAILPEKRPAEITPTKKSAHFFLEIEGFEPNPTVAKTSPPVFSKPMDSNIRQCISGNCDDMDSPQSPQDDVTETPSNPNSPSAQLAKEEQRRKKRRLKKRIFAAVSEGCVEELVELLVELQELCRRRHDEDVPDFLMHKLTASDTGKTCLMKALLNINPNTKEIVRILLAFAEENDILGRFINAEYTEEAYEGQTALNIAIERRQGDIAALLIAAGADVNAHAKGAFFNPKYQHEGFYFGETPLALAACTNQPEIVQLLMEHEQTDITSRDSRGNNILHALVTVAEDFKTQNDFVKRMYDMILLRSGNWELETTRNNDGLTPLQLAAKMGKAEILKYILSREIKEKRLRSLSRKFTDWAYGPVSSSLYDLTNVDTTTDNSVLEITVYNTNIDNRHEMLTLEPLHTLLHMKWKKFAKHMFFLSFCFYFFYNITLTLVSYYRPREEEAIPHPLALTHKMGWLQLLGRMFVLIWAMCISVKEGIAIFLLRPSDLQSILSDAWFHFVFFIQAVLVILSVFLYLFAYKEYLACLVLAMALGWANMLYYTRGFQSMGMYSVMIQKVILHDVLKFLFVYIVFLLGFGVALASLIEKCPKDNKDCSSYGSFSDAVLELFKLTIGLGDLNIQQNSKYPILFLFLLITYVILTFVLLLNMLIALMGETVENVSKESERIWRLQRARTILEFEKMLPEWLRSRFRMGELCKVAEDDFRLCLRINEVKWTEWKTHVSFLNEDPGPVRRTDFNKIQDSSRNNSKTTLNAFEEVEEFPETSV
Briefly: hTRPV3 patch clamp selectivity. Type of data set: cell-based. As to conditions: Table 2.

A further data set has as its target hTRPV4 (Homo sapiens, UniProt Q9HBA0). Briefly: hTRPV4 patch clamp selectivity. Type of data set: cell-based. As to conditions: Table 2.
Where [3] appears, read: Table 2, read-out: hNaV1.2 IC50.
[4] abbreviates: Table 2, read-out: hTRPA1 Fluor IC50.
Where [5] appears, read: Table 2, inward current, read-out: hTRPA1 Patch Inwd IC50.

Sequence of hERG (Q12809 whole entry): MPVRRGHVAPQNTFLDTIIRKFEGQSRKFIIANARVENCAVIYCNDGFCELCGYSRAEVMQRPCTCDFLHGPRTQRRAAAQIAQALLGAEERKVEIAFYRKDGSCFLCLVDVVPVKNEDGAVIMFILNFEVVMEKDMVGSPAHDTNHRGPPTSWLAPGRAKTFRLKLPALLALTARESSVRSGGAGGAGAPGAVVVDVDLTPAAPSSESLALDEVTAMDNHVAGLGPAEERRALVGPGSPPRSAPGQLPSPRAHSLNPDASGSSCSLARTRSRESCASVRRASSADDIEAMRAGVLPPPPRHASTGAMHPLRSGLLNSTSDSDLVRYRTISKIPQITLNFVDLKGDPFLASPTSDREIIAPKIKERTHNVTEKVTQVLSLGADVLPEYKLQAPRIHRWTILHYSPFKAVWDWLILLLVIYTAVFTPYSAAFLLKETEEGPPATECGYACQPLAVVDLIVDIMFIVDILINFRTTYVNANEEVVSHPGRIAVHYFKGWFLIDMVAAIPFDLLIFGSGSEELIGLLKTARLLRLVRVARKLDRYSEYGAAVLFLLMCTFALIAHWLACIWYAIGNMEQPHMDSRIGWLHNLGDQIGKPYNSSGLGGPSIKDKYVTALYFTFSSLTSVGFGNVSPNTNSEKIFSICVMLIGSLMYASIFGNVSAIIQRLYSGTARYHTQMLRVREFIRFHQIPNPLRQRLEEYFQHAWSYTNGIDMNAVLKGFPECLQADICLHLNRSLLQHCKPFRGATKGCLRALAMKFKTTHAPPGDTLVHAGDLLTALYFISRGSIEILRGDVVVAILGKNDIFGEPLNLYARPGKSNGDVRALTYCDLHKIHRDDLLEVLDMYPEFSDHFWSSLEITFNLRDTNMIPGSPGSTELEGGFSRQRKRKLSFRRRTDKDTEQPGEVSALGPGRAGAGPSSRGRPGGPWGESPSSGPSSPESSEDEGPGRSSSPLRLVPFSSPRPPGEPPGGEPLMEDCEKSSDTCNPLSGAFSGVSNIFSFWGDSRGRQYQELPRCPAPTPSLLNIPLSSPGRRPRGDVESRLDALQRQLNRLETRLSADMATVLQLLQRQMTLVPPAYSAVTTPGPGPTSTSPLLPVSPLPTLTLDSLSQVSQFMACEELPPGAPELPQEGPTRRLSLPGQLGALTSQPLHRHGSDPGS
Sequence of hNaV1.2 (Q99250 whole entry): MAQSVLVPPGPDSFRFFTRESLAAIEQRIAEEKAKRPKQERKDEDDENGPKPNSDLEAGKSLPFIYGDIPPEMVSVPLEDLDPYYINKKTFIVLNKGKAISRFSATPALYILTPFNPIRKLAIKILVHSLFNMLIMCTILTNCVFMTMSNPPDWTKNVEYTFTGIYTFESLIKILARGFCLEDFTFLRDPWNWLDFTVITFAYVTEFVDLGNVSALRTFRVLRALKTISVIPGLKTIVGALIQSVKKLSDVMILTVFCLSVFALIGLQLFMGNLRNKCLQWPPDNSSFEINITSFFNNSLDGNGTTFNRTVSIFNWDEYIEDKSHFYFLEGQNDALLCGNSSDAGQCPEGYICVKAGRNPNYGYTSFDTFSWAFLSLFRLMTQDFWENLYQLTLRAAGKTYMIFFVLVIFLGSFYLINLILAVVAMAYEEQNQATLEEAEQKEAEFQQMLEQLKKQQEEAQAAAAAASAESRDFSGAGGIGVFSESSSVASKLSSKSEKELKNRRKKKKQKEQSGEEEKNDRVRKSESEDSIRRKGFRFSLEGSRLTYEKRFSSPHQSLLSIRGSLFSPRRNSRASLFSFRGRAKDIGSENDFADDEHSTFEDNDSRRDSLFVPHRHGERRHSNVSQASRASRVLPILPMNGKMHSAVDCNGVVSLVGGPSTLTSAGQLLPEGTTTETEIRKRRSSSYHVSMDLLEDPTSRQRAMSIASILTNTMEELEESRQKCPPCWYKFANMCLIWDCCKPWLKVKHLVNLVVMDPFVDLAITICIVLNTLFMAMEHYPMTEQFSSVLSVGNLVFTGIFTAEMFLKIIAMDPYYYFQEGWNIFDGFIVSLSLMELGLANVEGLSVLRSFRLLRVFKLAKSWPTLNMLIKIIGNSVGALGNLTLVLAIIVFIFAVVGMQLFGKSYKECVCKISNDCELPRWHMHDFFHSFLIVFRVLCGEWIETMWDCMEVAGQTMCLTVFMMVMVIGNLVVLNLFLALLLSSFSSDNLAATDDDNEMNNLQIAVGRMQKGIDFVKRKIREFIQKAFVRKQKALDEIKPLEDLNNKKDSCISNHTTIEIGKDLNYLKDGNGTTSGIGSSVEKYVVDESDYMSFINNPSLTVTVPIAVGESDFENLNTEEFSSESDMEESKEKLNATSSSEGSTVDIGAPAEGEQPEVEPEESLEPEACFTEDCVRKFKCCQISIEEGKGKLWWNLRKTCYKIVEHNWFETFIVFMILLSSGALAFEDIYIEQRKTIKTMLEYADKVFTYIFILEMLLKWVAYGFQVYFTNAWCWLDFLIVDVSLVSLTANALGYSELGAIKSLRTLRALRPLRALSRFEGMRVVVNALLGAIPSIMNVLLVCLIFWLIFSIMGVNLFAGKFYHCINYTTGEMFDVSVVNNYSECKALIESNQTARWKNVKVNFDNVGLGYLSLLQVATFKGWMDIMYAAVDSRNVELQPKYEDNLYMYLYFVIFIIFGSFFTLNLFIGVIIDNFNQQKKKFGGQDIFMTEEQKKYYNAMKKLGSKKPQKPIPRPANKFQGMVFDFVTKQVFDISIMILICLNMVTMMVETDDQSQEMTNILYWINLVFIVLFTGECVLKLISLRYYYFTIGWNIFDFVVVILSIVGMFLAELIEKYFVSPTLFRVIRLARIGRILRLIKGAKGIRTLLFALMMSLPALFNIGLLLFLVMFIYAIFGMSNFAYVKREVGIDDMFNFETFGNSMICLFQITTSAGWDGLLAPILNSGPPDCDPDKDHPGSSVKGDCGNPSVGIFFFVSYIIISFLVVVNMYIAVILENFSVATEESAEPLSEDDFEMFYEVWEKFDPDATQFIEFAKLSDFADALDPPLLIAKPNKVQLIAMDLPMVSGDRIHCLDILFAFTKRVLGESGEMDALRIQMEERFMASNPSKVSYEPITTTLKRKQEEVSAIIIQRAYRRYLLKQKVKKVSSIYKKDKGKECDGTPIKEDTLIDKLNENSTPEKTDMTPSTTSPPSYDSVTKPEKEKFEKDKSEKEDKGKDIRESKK
T1 sequence (O75762 whole entry K186N): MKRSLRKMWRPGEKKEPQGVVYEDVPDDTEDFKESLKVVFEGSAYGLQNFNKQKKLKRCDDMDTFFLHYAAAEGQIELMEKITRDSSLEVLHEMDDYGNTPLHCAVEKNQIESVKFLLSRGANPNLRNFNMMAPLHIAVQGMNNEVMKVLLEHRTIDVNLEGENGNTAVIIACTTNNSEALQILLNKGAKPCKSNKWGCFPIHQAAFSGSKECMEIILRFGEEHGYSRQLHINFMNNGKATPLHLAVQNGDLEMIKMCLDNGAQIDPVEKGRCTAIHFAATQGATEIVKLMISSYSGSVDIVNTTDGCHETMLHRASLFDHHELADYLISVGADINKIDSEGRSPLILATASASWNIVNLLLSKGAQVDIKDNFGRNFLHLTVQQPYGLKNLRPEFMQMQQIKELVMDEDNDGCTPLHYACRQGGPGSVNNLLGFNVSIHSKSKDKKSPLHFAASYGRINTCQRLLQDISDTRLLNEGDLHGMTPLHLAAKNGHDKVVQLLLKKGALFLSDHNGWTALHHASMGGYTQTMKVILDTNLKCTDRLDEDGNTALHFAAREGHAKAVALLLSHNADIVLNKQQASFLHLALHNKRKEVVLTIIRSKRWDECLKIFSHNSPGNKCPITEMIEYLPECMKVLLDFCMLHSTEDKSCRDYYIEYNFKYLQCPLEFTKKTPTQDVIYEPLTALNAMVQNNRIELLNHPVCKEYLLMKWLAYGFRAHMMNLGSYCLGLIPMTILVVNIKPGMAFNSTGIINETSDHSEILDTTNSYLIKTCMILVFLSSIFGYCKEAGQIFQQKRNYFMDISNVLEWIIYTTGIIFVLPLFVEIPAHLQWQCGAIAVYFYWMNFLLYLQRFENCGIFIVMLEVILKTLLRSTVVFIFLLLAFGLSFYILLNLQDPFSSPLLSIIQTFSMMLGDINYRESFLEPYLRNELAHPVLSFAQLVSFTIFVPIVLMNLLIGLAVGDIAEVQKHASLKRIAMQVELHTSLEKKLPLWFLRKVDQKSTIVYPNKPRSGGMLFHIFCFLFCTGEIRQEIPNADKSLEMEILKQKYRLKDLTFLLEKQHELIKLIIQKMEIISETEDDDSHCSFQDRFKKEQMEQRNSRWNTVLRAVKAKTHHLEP
Sequence of hTRPV4 (Q9HBA0 whole entry): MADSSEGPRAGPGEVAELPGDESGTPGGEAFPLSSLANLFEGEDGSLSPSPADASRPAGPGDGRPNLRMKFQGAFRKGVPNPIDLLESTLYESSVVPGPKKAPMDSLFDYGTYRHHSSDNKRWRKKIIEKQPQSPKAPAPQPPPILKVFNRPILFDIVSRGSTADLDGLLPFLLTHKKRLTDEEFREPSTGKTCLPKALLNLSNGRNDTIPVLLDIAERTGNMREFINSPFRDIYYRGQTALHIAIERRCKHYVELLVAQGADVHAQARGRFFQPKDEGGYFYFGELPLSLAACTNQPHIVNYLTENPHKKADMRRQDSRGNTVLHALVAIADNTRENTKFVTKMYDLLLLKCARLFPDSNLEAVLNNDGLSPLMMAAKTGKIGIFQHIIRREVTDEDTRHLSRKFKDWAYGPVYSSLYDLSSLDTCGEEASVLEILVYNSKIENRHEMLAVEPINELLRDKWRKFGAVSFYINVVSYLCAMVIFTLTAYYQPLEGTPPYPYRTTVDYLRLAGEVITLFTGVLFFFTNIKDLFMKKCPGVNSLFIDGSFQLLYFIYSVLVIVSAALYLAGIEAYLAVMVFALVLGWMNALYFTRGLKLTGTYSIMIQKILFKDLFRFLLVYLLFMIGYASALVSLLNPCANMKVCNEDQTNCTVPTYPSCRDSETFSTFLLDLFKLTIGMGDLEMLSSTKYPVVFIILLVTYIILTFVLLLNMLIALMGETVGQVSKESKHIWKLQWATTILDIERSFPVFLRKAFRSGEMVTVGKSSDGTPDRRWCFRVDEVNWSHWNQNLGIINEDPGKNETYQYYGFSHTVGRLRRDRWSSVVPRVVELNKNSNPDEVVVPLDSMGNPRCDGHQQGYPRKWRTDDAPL

With `CCC(C)c1ccc(NC(=O)Cn2cnc3c2c(=O)n(C)c(=O)n3C)cc1` (stereo not drawn) [Compound 215], at hNaV1.2 (Table 2), the “selective for TRPA1 over NaV1.2” value was not below 55 fold. In addition, the IC50 at hNaV1.2 (setting [3]) was not below 30 µM; at hTRPA1 [1] (setting [4]) it was not above 5 µM; against hERG (hERG IC50 (nM), Table 2) it was not below 10000 nM; at hTRPA1 [2] (setting [5]) it was not above 1 µM. On hERG (Table 2), the selectivity ratio was not below 25.
As to `Cn1c(=O)c2c(ncn2CC(=O)Nc2ccc(Cl)c(Cl)c2)n(C)c1=O` [Compound 217], the “selective for TRPA1 over NaV1.2” value at hNaV1.2 (Table 2) is not below 50 fold. Further, the IC50 on hNaV1.2 (setting [3]) is not below 30 µM; on hTRPA1 [1] (setting [4]) it was not above 10 µM; on hERG (hERG IC50 (nM), Table 2), not below 20000 nM; on hTRPA1 [2] (setting [5]), not above 1 µM. Also, the selectivity ratio on hERG (Table 2) was not below 45.
For `Cn1c(=O)c2c(ncn2CC(=O)Nc2ccc(Br)cc2)n(C)c1=O` [Compound 219], the “selective for TRPA1 over NaV1.2” value on hNaV1.2 (Table 2) is given as not below 25 fold. For the same compound, the IC50 on hNaV1.2 (setting [3]) is not below 30 µM; on hTRPA1 [1] (setting [4]) it was not above 5 µM; on hERG (hERG IC50 (nM), Table 2) it was not below 20000 nM; on hTRPA1 [2] (setting [5]) it was not above 5 µM. Further, the “selective for TRPA1 over hERG” value on hERG (Table 2) is reported as not below 15 fold.
Turning to `Cn1c(=O)c2c(ncn2CC(=O)Nc2cccc(C(F)(F)F)c2)n(C)c1=O` [Compound 226], at hNaV1.2 (Table 2), the “selective for TRPA1 over NaV1.2” value is not below 5 fold. Further, the IC50 was not below 30 µM at hNaV1.2 (setting [3]); not above 5 µM on hTRPA1 [1] (setting [4]); more than 10000 nM on hERG (hERG IC50 (nM), Table 2); not above 10 µM at hTRPA1 [2] (setting [5]). Moreover, on hERG (Table 2), the selectivity ratio was not below 2.
As to `Cn1c(=O)c2c(ncn2CC(=O)Nc2nc(-c3ccc(Br)cc3)cs2)n(C)c1=O` [Compound 232], the “selective for TRPA1 over NaV1.2” value on hNaV1.2 (Table 2) is reported as not below 75 fold. In addition, the IC50 is not below 30 µM on hNaV1.2 (setting [3]); not above 1 µM on hTRPA1 [1] (setting [4]); not below 30000 nM on hERG (hERG IC50 (nM), Table 2); not above 0.5 µM on hTRPA1 [2] (setting [5]). Besides, on hERG (Table 2), the selectivity ratio is not below 75.
As for `Cn1c(=O)c2c(ncn2CC(=O)Nc2nc3ccccc3s2)n(C)c1=O` [Compound 239], the “selective for TRPA1 over TRPV3” value on hTRPV3 was not below 4 fold. The IC50 on hTRPV3 (read-out: hTRPV3 P1 inward IC50) was not above 10 µM; at hTRPA1 [1] (setting [4]), not above 5 µM; at hTRPA1 [2] (setting [5]), not above 5 µM.
On to `CCc1ccc(-c2csc(NC(=O)Cn3cnc4c3c(=O)n(C)c(=O)n4C)n2)cc1` [Compound 271], for which the IC50 on hTRPA1 [1] (setting [4]) was not above 5 µM; on hERG (hERG IC50 (nM), Table 2), not below 30000 nM; on hTRPA1 [2] (setting [5]) it was not above 0.5 µM. The selectivity ratio at hERG (Table 2) is not below 150.
The corresponding values for `CCOc1ccc(Oc2ccc(NC(=O)Cn3cnc4c3c(=O)n(C)c(=O)n4C)cc2)cc1` [Compound 284] are not above 5 µM, not above 5000 nM, not above 0.5 µM and not below 10.
As to `Cn1c(=O)c2c(ncn2CC(=O)Nc2ccc3c(c2)OC2(CCCCC2)O3)n(C)c1=O` [Compound 347], the IC50 against hTRPV4 was more than 10 µM; at hTRPA1 [1] (setting [4]), not above 1 µM; on hERG (hERG IC50 (nM), Table 2), not below 20000 nM; on hTRPA1 [2] (setting [5]), not above 1 µM. Also, at hTRPV4, the “selective for TRPA1 over TRPV4” value is recorded as not below 15 fold. The selectivity ratio on hERG (Table 2) was not below 45.
Turning to `CCOC(=O)C1=C(c2ccccc2)NC(=S)NC1c1cc(O)ccc1Br` (stereo not drawn) [drawing 49], the “selective for TRPA1 over NaV1.2” value at hNaV1.2 (Table 1) is on record as not below 40 fold. The IC50 was not below 30 µM on hNaV1.2 (Table 1, read-out: hNaV1.2 Qpatch IC50); not above 1 µM at hTRPA1 [1] (Table 1, read-out: hTRPA1 Fluo4 IC50); not below 20000 nM on hERG (hERG Qpatch IC50 (nM), Table 1); not above 1 µM at hTRPA1 [2] (Table 1, read-out: hTRPA1 Patch IC50). Also, the selectivity ratio at hERG (Table 1) was not below 30.
